Data taken from paper PMC4111374 (Journal of Medicinal Chemistry, 2014).

Tests used:
[1] = tested on: LS174T colon cancer cells; conditions: earlier report; cited from earlier work
[2] = cited from earlier work
[3] = tested on: LS174T colon cancer cells; experiment: LS174T cell proliferation; format: cell-based; conditions: for IC50: Homo sapiens, LS174T, read-out: inhibition of LS174T cell proliferation IC50, LS174T colon cancer cells, 1 to 300 nM, triplicate
hERG channel = hERG channel (Homo sapiens, UniProt Q12809); conditions: for interaction with hERG: [3H]-dofetilide binding assay; for ratio of IC50 for hERG inhibition to IC50 for inhibition of LS174T cell proliferation: human
[4] = water solubility of hydrochloride salts; format: physicochemical

hERG channel, sequence (Q12809 whole entry): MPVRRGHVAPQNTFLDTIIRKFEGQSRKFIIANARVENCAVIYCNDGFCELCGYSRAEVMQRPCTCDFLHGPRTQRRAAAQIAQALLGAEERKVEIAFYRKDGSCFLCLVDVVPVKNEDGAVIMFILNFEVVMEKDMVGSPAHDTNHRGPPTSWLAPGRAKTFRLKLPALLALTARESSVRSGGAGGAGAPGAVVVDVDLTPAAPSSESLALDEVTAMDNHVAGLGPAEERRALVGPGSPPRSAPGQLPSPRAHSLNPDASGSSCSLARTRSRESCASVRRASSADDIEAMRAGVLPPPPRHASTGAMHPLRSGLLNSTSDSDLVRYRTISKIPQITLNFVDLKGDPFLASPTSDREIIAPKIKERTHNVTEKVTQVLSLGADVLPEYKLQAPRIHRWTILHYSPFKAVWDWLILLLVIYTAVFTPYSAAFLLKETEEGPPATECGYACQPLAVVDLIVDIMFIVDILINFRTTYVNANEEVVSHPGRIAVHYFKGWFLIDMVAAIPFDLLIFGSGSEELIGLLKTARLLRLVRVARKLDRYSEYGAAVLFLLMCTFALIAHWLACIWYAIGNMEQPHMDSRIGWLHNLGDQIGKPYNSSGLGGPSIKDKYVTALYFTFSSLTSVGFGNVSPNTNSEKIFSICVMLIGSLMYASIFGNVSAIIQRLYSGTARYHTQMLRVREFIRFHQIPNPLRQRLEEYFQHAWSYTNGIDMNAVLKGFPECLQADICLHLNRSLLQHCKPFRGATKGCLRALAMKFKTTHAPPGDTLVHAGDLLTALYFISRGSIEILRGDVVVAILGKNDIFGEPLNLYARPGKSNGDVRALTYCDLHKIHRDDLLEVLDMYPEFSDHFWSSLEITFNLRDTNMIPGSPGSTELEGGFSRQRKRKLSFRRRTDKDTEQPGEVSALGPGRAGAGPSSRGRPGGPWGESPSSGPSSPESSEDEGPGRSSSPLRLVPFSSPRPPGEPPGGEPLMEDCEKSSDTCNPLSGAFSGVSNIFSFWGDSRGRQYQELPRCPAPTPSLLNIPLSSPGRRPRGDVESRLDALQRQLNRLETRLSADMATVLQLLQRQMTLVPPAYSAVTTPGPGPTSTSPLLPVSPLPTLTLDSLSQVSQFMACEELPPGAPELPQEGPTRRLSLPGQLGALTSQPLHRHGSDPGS

| SMILES | interaction with hERG (hERG channel) | ratio of IC50 for hERG inhibition to IC50 for inhibition of LS174T cell proliferation (hERG channel) | also measured |
| --- | --- | --- | --- |
| CN(C)c1ccc(/C=C/c2c(F)cccc2F)cc1 [FIDAS 1a, (E)-4-(2′,6′-difluorostyryl)-N,N-dimethylaniline] | – | – | in vitro activity in LS174T cells [1]: low micromolar range; half-life in vivo [2]: reasonable half-life; oral bioavailability ([2]; in vivo): good oral bioavailability |
| CNc1ccc(/C=C/c2c(F)cccc2F)cc1 [FIDAS 1b] | did not interact appreciably with hERG | 6.5 × 10^3 | IC50 [3]: < 10 nM; IC50 for the inhibition of LS174T cells relative to 1a ([3]; LS174T cells): 4 fold |
| CN(C)c1ccc(/C=C/c2c(F)cccc2Cl)cc1 [FIDAS 2a] | – | – | in vitro activity relative to 3a ([3]; LS174T cells, relative to 3a): 10 fold |
| CNc1ccc(/C=C/c2c(F)cccc2Cl)cc1 [FIDAS 2b] | did not interact appreciably with hERG | 6.6 × 10^3 | IC50 [3]: < 10 nM; IC50 for the inhibition of LS174T cells relative to 1a ([3]; LS174T cells): 4 fold |
| CN(C)c1ccc(/C=C/c2c(F)cccc2Cl)nc1 [FIDAS 5a, (E)-2-(2′-Chloro-6′-fluorostyryl)-5-(N,N-dimethylamino)pyridine] | – | 1.0 × 10^3 | – |
| CN(C)c1ccc(/C=C/c2c(F)cccc2Cl)cn1 [FIDAS 8a, (E)-5-(2′-Chloro-6′-fluorostyryl)-2-(N,N-dimethylamino)pyridine] | did not interact appreciably with hERG | 12.7 × 10^3 | water solubility of hydrochloride salt [4]: water-soluble |
| CNc1ccc(/C=C/c2c(F)cccc2Cl)cn1 [FIDAS 8b, (E)-5-(2′-Chloro-6′-fluorostyryl)-2-(N-methylamino)pyridine] | did not interact appreciably with hERG | 5.0 × 10^3 | water solubility of hydrochloride salt [4]: water-soluble |
| CN(C)c1ncc(/C=C/c2c(F)cccc2F)cn1 [FIDAS 10a, (E)-5-(2′,6′-Difluorostyryl)-2-(N,N-dimethylamino)pyrimidine] | – | 0.5 × 10^3 | – |
